This is an account of results in the supplement of paper PMC11208160.
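Also: IS621 recombinase and bridge RNA in Escherichia coli cells.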

The data set can be described thus: recombinant barcode read abundance after kanamycin selection (control-corrected) (log10(CPM+1)); higher = more efficient recombination; sequences stand for … in AGTGCAGAGAAAATCGGCCAGTTTTCTCTGCCTGCAGTCCGCATGCCGT…AGATTTATGCAGCGGACTGCCTTTCTCCCAAAGTGATAAACCGGACAGTATCATGGACCGGTTTTCCCGGTAATCCGTATTTGCAAGGTTGGTTTCACT; site = the 11-nt target. The method, boiled down: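 The screen was pooled in E. coli and paired targets with IS621 bridge RNA target-binding loops. Recombination efficiency is taken from barcode counts per million at recombinant junctions, averaged and adjusted against the control. Values, in the form log10(CPM+1), come from duplicate plating on chloramphenicol/ampicillin LB agar or on chloramphenicol/ampicillin/kanamycin with 0.1 mM IPTG.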
For the sequence “CGGAGAGCTTGGGTTCTAACCTGTTGCCT (site CAGAGAGCTAG)”, the “recombinant barcode read abundance (log10)” value turned out to be 0.402.

For the sequence “CGGAGAGCTTGGGTTCTAACCTGTTGCCT (site CCGAGAGCTAG)”, the “recombinant barcode read abundance (log10)” value was 0.433.

On to “CGGAGAGCTTGGGTTCTAACCTGTTGCCT (site CGGAGAGCTAG)”, for which the “recombinant barcode read abundance (log10)” value is 1.83.

On to “CGGAGAGCTTGGGTTCTAACCTGTTGCCT (site CTGAGAGCTAG)”, for which the “recombinant barcode read abundance (log10)” value was determined as 0.

As to “CGGAGCCCTTGGGTTCTAACCTGTTGCCT (site CAAAGCCCTAG)”, the “recombinant barcode read abundance (log10)” value came out at 0.0117.

Turning to “CGGAGCCCTTGGGTTCTAACCTGTTGCCT (site CGGAGCCCTAG)”, the “recombinant barcode read abundance (log10)” value came to 1.27.

Regarding “CGGATCCCTTGGGTTCTAACCTGTTGCCT (site CAGATCCCTAG)”, the “recombinant barcode read abundance (log10)” value is 0.555.

On to “CGGATCCCTTGGGTTCTAACCTGTTGCCT (site CCGATCCCTAG)”, for which the “recombinant barcode read abundance (log10)” value was 0.159.

As to “CGGATCCCTTGGGTTCTAACCTGTTGCCT (site CGGATCCCTAG)”, the “recombinant barcode read abundance (log10)” value was found to be 1.39.

Regarding “CGGATCCCTTGGGTTCTAACCTGTTGCCT (site CTGATCCCTAG)”, the “recombinant barcode read abundance (log10)” value amounted to 0.284.

Take “CGGCGTACTTGGGTTCTAACCTGTTGCCT (site CGACGTACTAG)”: the “recombinant barcode read abundance (log10)” value came to 0.14.

In the case of “CGGCGTACTTGGGTTCTAACCTGTTGCCT (site CGCCGTACTAG)”, the “recombinant barcode read abundance (log10)” value amounted to 0.103.

“CGGCGTACTTGGGTTCTAACCTGTTGCCT (site CGGCGTACTAG)”: the “recombinant barcode read abundance (log10)” value is 0.959.

In the case of “CGGCGTACTTGGGTTCTAACCTGTTGCCT (site CGTCGTACTAG)”, the “recombinant barcode read abundance (log10)” value turned out to be 0.069.

On to “CGGCGTCCTTGGGTTCTAACCTGTTGCCT (site CGGCGTCCTAG)”, for which the “recombinant barcode read abundance (log10)” value was found to be 1.24.

In the case of “CGGCGTCCTTGGGTTCTAACCTGTTGCCT (site CGGCGTCCTCG)”, the “recombinant barcode read abundance (log10)” value was determined as 0.0739.

Regarding “CGGCGTCCTTGGGTTCTAACCTGTTGCTA (site CGGAGTCCTTA)”, the “recombinant barcode read abundance (log10)” value was 0.0265.

For “CGGCGTCCTTGGGTTCTAACCTGTTGCTA (site CGGCGTCCTTA)”, the “recombinant barcode read abundance (log10)” value worked out at 0.452.

Consider “CGGCGTCCTTGGGTTCTAACCTGTTGCTA (site CGGGGTCCTTA)”, for which the “recombinant barcode read abundance (log10)” value turned out to be 0.113.

With “CGGCGTCCTTGGGTTCTAACCTGTTGCTA (site CGGTGTCCTTA)”, the “recombinant barcode read abundance (log10)” value was determined as 0.42.

Regarding “CGGCTACCTTGGGTTCTAACCTGTTGCCT (site CAGCTACCTAG)”, the “recombinant barcode read abundance (log10)” value is 0.194.

Regarding “CGGCTACCTTGGGTTCTAACCTGTTGCCT (site CCGCTACCTAG)”, the “recombinant barcode read abundance (log10)” value was 0.13.

“CGGCTACCTTGGGTTCTAACCTGTTGCCT (site CGGCTACCTAG)”: the “recombinant barcode read abundance (log10)” value was found to be 1.96.

As for “CGGCTACCTTGGGTTCTAACCTGTTGCCT (site CTGCTACCTAG)”, the “recombinant barcode read abundance (log10)” value is 0.429.

With “CGGCTCACTTGGGTTCTAACCTGTTGCTA (site CGGCACACTAA)”, the “recombinant barcode read abundance (log10)” value amounted to 0.0598.

For the sequence “CGGCTCACTTGGGTTCTAACCTGTTGCTA (site CGGCTCACTTA)”, the “recombinant barcode read abundance (log10)” value turned out to be 2.31.

Regarding “CGGCTGACTTGGGTTCTAACCTGTTGCCT (site CGGCTCACTAG)”, the “recombinant barcode read abundance (log10)” value amounted to 0.446.

On to “CGGCTGACTTGGGTTCTAACCTGTTGCCT (site CGGCTGACTAG)”, for which the “recombinant barcode read abundance (log10)” value was determined as 1.46.

For “CGGGCCTCTTGGGTTCTAACCTGTTGCTA (site CGGGCCTCTAA)”, the “recombinant barcode read abundance (log10)” value stood at 0.185.

For “CGGGCCTCTTGGGTTCTAACCTGTTGCTA (site CGGGCCTCTCA)”, the “recombinant barcode read abundance (log10)” value was 0.

“CGGGCCTCTTGGGTTCTAACCTGTTGCTA (site CGGGCCTCTGA)”: the “recombinant barcode read abundance (log10)” value was found to be 1.27.

In the case of “CGGGCCTCTTGGGTTCTAACCTGTTGCTA (site CGGGCCTCTTA)”, the “recombinant barcode read abundance (log10)” value came out at 2.38.

Regarding “CGGGCCTCTTGGGTTCTAACCTGTTGCTT (site CGGGCCTCTAA)”, the “recombinant barcode read abundance (log10)” value came out at 2.03.

As for “CGGGCCTCTTGGGTTCTAACCTGTTGCTT (site CGGGCCTCTCA)”, the “recombinant barcode read abundance (log10)” value came to 0.148.

In the case of “CGGGCCTCTTGGGTTCTAACCTGTTGCTT (site CGGGCCTCTGA)”, the “recombinant barcode read abundance (log10)” value amounted to 0.469.

Regarding “CGGGCCTCTTGGGTTCTAACCTGTTGCTT (site CGGGCCTCTTA)”, the “recombinant barcode read abundance (log10)” value was found to be 0.336.

On to “CGGGCGCCTTGGGTTCTAACCTGTTGCGG (site CGGCCGACTCC)”, for which the “recombinant barcode read abundance (log10)” value was 0.0157.

Consider “CGGGCGCCTTGGGTTCTAACCTGTTGCGG (site CGGGCGCCTCC)”, for which the “recombinant barcode read abundance (log10)” value worked out at 2.14.

As to “CGGGTGCCTTGGGTTCTAACCTGTTGCCT (site CAGGTGCCTAG)”, the “recombinant barcode read abundance (log10)” value turned out to be 0.379.

With “CGGGTGCCTTGGGTTCTAACCTGTTGCCT (site CCGGTGCCTAG)”, the “recombinant barcode read abundance (log10)” value came out at 0.717.

Regarding “CGGGTGCCTTGGGTTCTAACCTGTTGCCT (site CGGGTGCCTAG)”, the “recombinant barcode read abundance (log10)” value came out at 1.66.

“CGGGTGCCTTGGGTTCTAACCTGTTGCCT (site CTGGTGCCTAG)”: the “recombinant barcode read abundance (log10)” value amounted to 0.0879.

Regarding “CGGTAACCTTGGGTTCTAACCTGTTGCCT (site AGGTAACCTAG)”, the “recombinant barcode read abundance (log10)” value turned out to be 0.429.

Take “CGGTAACCTTGGGTTCTAACCTGTTGCCT (site CGGTAACCTAG)”: the “recombinant barcode read abundance (log10)” value stood at 0.761.

As for “CGGTAACCTTGGGTTCTAACCTGTTGCCT (site GGGTAACCTAG)”, the “recombinant barcode read abundance (log10)” value was 0.185.

For “CGGTAACCTTGGGTTCTAACCTGTTGCCT (site TGGTAACCTAG)”, the “recombinant barcode read abundance (log10)” value is 0.753.

With “CGGTAGTCTTGGGTTCTAACCTGTTGCTT (site CGGTAGTCTAA)”, the “recombinant barcode read abundance (log10)” value amounted to 1.41.

As to “CGGTAGTCTTGGGTTCTAACCTGTTGCTT (site CGGTAGTCTCA)”, the “recombinant barcode read abundance (log10)” value was determined as 0.0659.

For “CGGTGTCCTTGGGTTCTAACCTGTTGCTA (site CGGAGTCCTTA)”, the “recombinant barcode read abundance (log10)” value turned out to be 0.0633.

With “CGGTGTCCTTGGGTTCTAACCTGTTGCTA (site CGGCGTCCTTA)”, the “recombinant barcode read abundance (log10)” value was determined as 0.586.

As for “CGGTGTCCTTGGGTTCTAACCTGTTGCTA (site CGGGGTCCTTA)”, the “recombinant barcode read abundance (log10)” value amounted to 0.225.

With “CGGTGTCCTTGGGTTCTAACCTGTTGCTA (site CGGTGTCCTTA)”, the “recombinant barcode read abundance (log10)” value came to 1.33.

As for “CGGTTTCCTTGGGTTCTAACCTGTTGCCT (site CGGTTTCCTAG)”, the “recombinant barcode read abundance (log10)” value stood at 0.848.

As to “CGGTTTCCTTGGGTTCTAACCTGTTGCCT (site CTATTTCCTAG)”, the “recombinant barcode read abundance (log10)” value stood at 0.0218.

Regarding “CGTAAGTCTTGGGTTCTAACCTGTTGCCT (site CGTAAGTCTAG)”, the “recombinant barcode read abundance (log10)” value is 1.11.

With “CGTAAGTCTTGGGTTCTAACCTGTTGCCT (site TATAAGTCTAG)”, the “recombinant barcode read abundance (log10)” value came to 0.0991.

With “CGTACGACTTGGGTTCTAACCTGTTGCAT (site CGTACGACTAT)”, the “recombinant barcode read abundance (log10)” value came to 0.215.

Turning to “CGTACGACTTGGGTTCTAACCTGTTGCAT (site CGTCCGACTAT)”, the “recombinant barcode read abundance (log10)” value came to 0.451.

In the case of “CGTACGACTTGGGTTCTAACCTGTTGCAT (site CGTGCGACTAT)”, the “recombinant barcode read abundance (log10)” value was 0.236.

For “CGTACGACTTGGGTTCTAACCTGTTGCAT (site CGTTCGACTAT)”, the “recombinant barcode read abundance (log10)” value was found to be 0.0932.

As for “CGTAGGTCTTGGGTTCTAACCTGTTGCCT (site CGTAGGTCTAG)”, the “recombinant barcode read abundance (log10)” value was 0.101.

On to “CGTAGGTCTTGGGTTCTAACCTGTTGCCT (site CTTAGCTCTAG)”, for which the “recombinant barcode read abundance (log10)” value is 0.0284.

For “CGTCCTCCTTGGGTTCTAACCTGTTGCAT (site CCGCCTCCTAT)”, the “recombinant barcode read abundance (log10)” value is 0.00736.

On to “CGTCCTCCTTGGGTTCTAACCTGTTGCAT (site CGTCCTCCTAT)”, for which the “recombinant barcode read abundance (log10)” value was found to be 0.089.

In the case of “CGTCCTGCTTGGGTTCTAACCTGTTGCTT (site CGTCCTGCTAA)”, the “recombinant barcode read abundance (log10)” value came out at 0.527.

As to “CGTCCTGCTTGGGTTCTAACCTGTTGCTT (site TAGGGGACTTT)”, the “recombinant barcode read abundance (log10)” value turned out to be 0.0676.

With “CGTCGCACTTGGGTTCTAACCTGTTGCCT (site CATCGCACTAG)”, the “recombinant barcode read abundance (log10)” value stood at 0.234.

“CGTCGCACTTGGGTTCTAACCTGTTGCCT (site CCTCGCACTAG)”: the “recombinant barcode read abundance (log10)” value is 0.029.

With “CGTCGCACTTGGGTTCTAACCTGTTGCCT (site CGTCGCACTAG)”, the “recombinant barcode read abundance (log10)” value came out at 0.0318.

Consider “CGTCGCACTTGGGTTCTAACCTGTTGCCT (site CTTCGCACTAG)”, for which the “recombinant barcode read abundance (log10)” value was determined as 0.164.

Turning to “CGTCGTACTTGGGTTCTAACCTGTTGCCT (site CGACGTACTAG)”, the “recombinant barcode read abundance (log10)” value was found to be 0.504.

In the case of “CGTCGTACTTGGGTTCTAACCTGTTGCCT (site CGCCGTACTAG)”, the “recombinant barcode read abundance (log10)” value was determined as 0.0657.

As to “CGTCGTACTTGGGTTCTAACCTGTTGCCT (site CGGCGTACTAG)”, the “recombinant barcode read abundance (log10)” value came to 0.0235.

As for “CGTCGTACTTGGGTTCTAACCTGTTGCCT (site CGTCGTACTAG)”, the “recombinant barcode read abundance (log10)” value came out at 0.136.

Turning to “CGTCTCCCTTGGGTTCTAACCTGTTGCCT (site CCTCTGCCTAG)”, the “recombinant barcode read abundance (log10)” value turned out to be 0.0171.

As for “CGTCTCCCTTGGGTTCTAACCTGTTGCCT (site CGTCTCCCTAG)”, the “recombinant barcode read abundance (log10)” value was found to be 0.451.

Consider “CGTGTAACTTGGGTTCTAACCTGTTGCCT (site CGTATATCTAG)”, for which the “recombinant barcode read abundance (log10)” value was 0.13.
